In PubChem BioAssay AID248 (DTP/NCI, 2004):
Values joined by “and” are separate entries in the source; they are usually repeats but may differ in a detail not shown here. Equal values may be shown once. Toxic doses and inconclusive results are not listed. Rule as the data show it: active = T/C of 150% or more; inactive = T/C below 125%.

Test system: L1210 leukemia ip in BDF1 mice, survival T/C
Assay: NCI In Vivo Anticancer Drug Screen. Data for tumor model L1210 Leukemia (intraperitoneal) in B6D2F1 (BDF1) mice
Details: endpoint: mean survival time, higher = longer survival
In short: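 Mice bearing the transplanted tumor received compound or vehicle. Survival of the treated group was divided by that of the vehicle-treated control group to give the ratio.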

[1] = dose: 100.0 mg/kg/injection, schedule: Q04DX003 (ip), vehicle: saline with Tween-80
[2] = dose: 200.0 mg/kg/injection, schedule: Q04DX003 (ip), vehicle: saline with Tween-80
[3] = dose: 400.0 mg/kg/injection, schedule: Q04DX003 (ip), vehicle: saline with Tween-80
[4] = dose: 100.0 mg/kg/injection, schedule: Q01DX001 (ip), vehicle: saline with Tween-80
[5] = dose: 100.0 mg/kg/injection, schedule: Q01DX009 (ip), vehicle: saline with Tween-80
[6] = dose: 200.0 mg/kg/injection, schedule: Q01DX001 (ip), vehicle: saline with Tween-80
[7] = dose: 200.0 mg/kg/injection, schedule: Q01DX009 (ip), vehicle: saline with Tween-80
[8] = dose: 400.0 mg/kg/injection, schedule: Q01DX001 (ip), vehicle: saline with Tween-80
[9] = dose: 400.0 mg/kg/injection, schedule: Q01DX009 (ip), vehicle: saline with Tween-80
[10] = dose: 100.0 mg/kg/injection, schedule: Q01DX001 (ip), vehicle: saline
[11] = dose: 200.0 mg/kg/injection, schedule: Q01DX001 (ip), vehicle: saline
[12] = dose: 100.0 mg/kg/injection, schedule: Q01DX009 (ip), vehicle: Klucel (hydroxypropylcellulose) (HPC)
[13] = dose: 100.0 mg/kg/injection, schedule: Q04DX003 (ip), vehicle: Klucel (hydroxypropylcellulose) (HPC)
[14] = dose: 200.0 mg/kg/injection, schedule: Q01DX009 (ip), vehicle: Klucel (hydroxypropylcellulose) (HPC)
[15] = dose: 200.0 mg/kg/injection, schedule: Q04DX003 (ip), vehicle: Klucel (hydroxypropylcellulose) (HPC)
[16] = dose: 400.0 mg/kg/injection, schedule: Q04DX003 (ip), vehicle: Klucel (hydroxypropylcellulose) (HPC)
[17] = dose: 400.0 mg/kg/injection, schedule: Q01DX009 (ip), vehicle: Klucel (hydroxypropylcellulose) (HPC)

Measured: T/C

CCCCCCCCNc1ccccc1
inactive: [1] 95 % of control | [2] 106 % of control | [3] 117 % of control

COc1cc([N+](=O)[O-])ccc1NC(=S)NC(=O)c1ccc(Cl)cc1Cl
inactive: [4] 92 % of control | [5] 91 % of control and 92 % of control | dose: 100.0 mg/kg/injection, schedule: Q04DX002 (ip), vehicle: saline with Tween-80 104 % of control and 87 % of control | [1] 98 % of control | [6] 92 % of control | [7] 95 % of control and 97 % of control | dose: 200.0 mg/kg/injection, schedule: Q04DX002 (ip), vehicle: saline with Tween-80 93 % of control and 97 % of control | [2] 92 % of control | [8] 90 % of control | [9] 93 % of control and 94 % of control | dose: 400.0 mg/kg/injection, schedule: Q04DX002 (ip), vehicle: saline with Tween-80 95 % of control and 87 % of control | [3] 88 % of control

O=C(NC/C=C/Br)C(F)(F)F
inactive: [4] 118 % of control | [1] 98 % of control | [6] 96 % of control | [2] 95 % of control | [8] 95 % of control | [3] 97 % of control

COC(=O)N1c2ccccc2C=C(NC(C)=O)C1C#N (centres undefined)
inactive: [5] 117 % of control | [1] 103 % of control | [7] 98 % of control | [2] 95 % of control | [9] 98 % of control | [3] 94 % of control

CC(=O)C(C)(CCC#N)CCC#N
inactive: dose: 50.0 mg/kg/injection, schedule: Q01DX009 (ip), vehicle: saline with Tween-80 105 % of control | [5] 91 % of control | [1] 108 % of control | [2] 104 % of control

CCCCCCN(CCCCCC)CP(=S)(CN(CCCCCC)CCCCCC)CN(CCCCCC)CCCCCC
inactive: [4] 99 % of control | [6] 104 % of control

CCN1/C(=C/C=C/c2oc3ccccc3[n+]2CC)Oc2ccccc21
inactive: dose: 0.05 mg/kg/injection, schedule: Q04DX003 (ip), vehicle: Klucel (hydroxypropylcellulose) (HPC) 102 % of control | dose: 0.1 mg/kg/injection, schedule: Q04DX003 (ip), vehicle: Klucel (hydroxypropylcellulose) (HPC) 100 % of control | dose: 0.2 mg/kg/injection, schedule: Q01DX009 (ip), vehicle: saline 104 % of control | dose: 0.2 mg/kg/injection, schedule: Q04DX003 (ip), vehicle: Klucel (hydroxypropylcellulose) (HPC) 98 % of control | dose: 0.2 mg/kg/injection, schedule: Q04DX003 (ip), vehicle: saline 112 % of control | dose: 0.4 mg/kg/injection, schedule: Q01DX009 (ip), vehicle: saline 109 % of control | dose: 0.4 mg/kg/injection, schedule: Q04DX003 (ip), vehicle: Klucel (hydroxypropylcellulose) (HPC) 104 % of control | dose: 0.4 mg/kg/injection, schedule: Q04DX003 (ip), vehicle: saline 94 % of control | dose: 0.5 mg/kg/injection, schedule: Q01DX001 (ip), vehicle: saline 108 % of control | dose: 0.8 mg/kg/injection, schedule: Q01DX009 (ip), vehicle: saline 114 % of control | dose: 0.8 mg/kg/injection, schedule: Q04DX003 (ip), vehicle: saline 100 % of control | dose: 1.0 mg/kg/injection, schedule: Q01DX001 (ip), vehicle: saline 100 % of control | dose: 1.6 mg/kg/injection, schedule: Q04DX003 (ip), vehicle: saline 107 % of control | dose: 37.5 micrograms/kg/injection, schedule: Q01DX009 (ip), vehicle: Klucel (hydroxypropylcellulose) (HPC) 108 % of control | dose: 75.0 micrograms/kg/injection, schedule: Q01DX009 (ip), vehicle: Klucel (hydroxypropylcellulose) (HPC) 98 % of control | dose: 150.0 micrograms/kg/injection, schedule: Q01DX009 (ip), vehicle: Klucel (hydroxypropylcellulose) (HPC) 107 % of control | dose: 300.0 micrograms/kg/injection, schedule: Q01DX009 (ip), vehicle: Klucel (hydroxypropylcellulose) (HPC) 113 % of control

O=C1C=C(N2CCCC2)CC1
inactive: dose: 75.0 mg/kg/injection, schedule: Q01DX001 (ip), vehicle: saline 101 % of control | dose: 150.0 mg/kg/injection, schedule: Q01DX001 (ip), vehicle: saline 104 % of control

c1ccc(N(c2ccccc2)N(c2ccccc2)c2ccccc2)cc1
inactive: dose: 12.5 mg/kg/injection, schedule: Q01DX009 (ip), vehicle: saline 90 % of control | dose: 50.0 mg/kg/injection, schedule: Q04DX003 (ip), vehicle: saline 89 % of control | [10] 88 % of control | [11] 88 % of control

O=C(O)c1c(O)c(-c2ccccc2)nc2ccccc12
inactive: dose: 25.0 mg/kg/injection, schedule: Q01DX001 (ip), vehicle: Klucel (hydroxypropylcellulose) (HPC) 90 % of control | dose: 50.0 mg/kg/injection, schedule: Q01DX001 (ip), vehicle: Klucel (hydroxypropylcellulose) (HPC) 102 % of control | dose: 50.0 mg/kg/injection, schedule: Q01DX009 (ip), vehicle: Klucel (hydroxypropylcellulose) (HPC) 101 % of control | dose: 100.0 mg/kg/injection, schedule: Q01DX001 (ip), vehicle: Klucel (hydroxypropylcellulose) (HPC) 86 % of control | [12] 100 % of control | [13] 98 % of control | [14] 103 % of control | [15] 100 % of control

Cc1cccc(C(=O)CC(O)(C(F)(F)F)C(F)(F)F)n1
inactive: [1] 92 % of control | [2] 86 % of control | [3] 90 % of control

O=[Se]1OCc2ccccc2CO1
inactive: dose: 9.5 mg/kg/injection, schedule: Q01DX001 (ip), vehicle: saline with Tween-80 101 % of control | dose: 19.0 mg/kg/injection, schedule: Q01DX001 (ip), vehicle: saline with Tween-80 106 % of control | dose: 38.0 mg/kg/injection, schedule: Q01DX001 (ip), vehicle: saline with Tween-80 113 % of control

O=C(Cc1ccccc1)OCC1CC2C=CC1C2 (centres undefined)
inactive: dose: 222.0 mg/kg/injection, schedule: Q01DX Z (ip), vehicle: methylcellulose (MC) 102 % of control | dose: 333.0 mg/kg/injection, schedule: Q01DX Z (ip), vehicle: methylcellulose (MC) 93 % of control | dose: 500.0 mg/kg/injection, schedule: Q01DX Z (ip), vehicle: methylcellulose (MC) 93 % of control

CC(=O)Oc1c2ccccc2c(OC(C)=O)c2[nH]c(-c3ccccc3)cc12
inactive: [13] 90 % of control | [15] 93 % of control | [16] 90 % of control

COC(OC)C(Br)(Br)Br
inactive: [10] 96 % of control | [11] 106 % of control | dose: 400.0 mg/kg/injection, schedule: Q01DX001 (ip), vehicle: saline 100 % of control

CCCCNC(=O)Nc1ccc(OC)cc1Cl
inactive: [12] 102 % of control | [13] 90 % of control | [14] 106 % of control | [15] 97 % of control | [17] 87 % of control | [16] 92 % of control

COc1ccc(OC)c(NC(=O)Nc2ccc([N+](=O)[O-])cc2OC)c1
inactive: [12] 96 % of control | [14] 93 % of control | [17] 94 % of control

c1ccc(CCN2CCN(CCc3ccccn3)CC2)nc1
inactive: [10] 98 % of control

O=C(NCCNC(=O)c1cccnc1)c1ccncc1
inactive: dose: 100.0 mg/kg/injection, schedule: Q04DX003 (ip), vehicle: acetone 95 % of control | dose: 200.0 mg/kg/injection, schedule: Q04DX003 (ip), vehicle: acetone 105 % of control | dose: 400.0 mg/kg/injection, schedule: Q04DX003 (ip), vehicle: acetone 106 % of control

O=S1(=O)C=CCCC=C1
inactive: dose: 50.0 mg/kg/injection, schedule: Q04DX002 (ip), vehicle: Klucel (hydroxypropylcellulose) (HPC) 105 % of control | dose: 75.0 mg/kg/injection, schedule: Q04DX002 (ip), vehicle: Klucel (hydroxypropylcellulose) (HPC) 112 % of control
